The results in this text go back to patent US20180116993A1, “MODULATORS OF FARNESOID X RECEPTOR AND METHODS FOR THE USE THEREOF” (XIAMEN UNIVERSITY, priority 2015, published 2018).

Marks after values point to notes of the source that are not given here.

One test has as its system db/db mice. Nature of the test: Serum/blood metabolic parameters in high-fat diet fed db/db mice. The note with it: 50 mg/kg for 7 days. It counts as in vivo, mouse. The source says:
(§1) KK-Ay mice (KK/Upj-Ay/J) are animal models with moderate obese and diabetes with insulin resistance. KK-Ay mice develop hyperglycemia, hyperinsulinemia, glucose intolerance and obesity as well as fat accumulation in liver by eight weeks of age. Pancreatic islets are hypertrophied and the β-cells are degranulated. db/db mice (BKS.Cg-Dockr+/+ Lepr^db/Jnju) are animal models of type II diabetes. They have the phenotype of insulin resistance. These model mice were used to detect the functions of our compounds on metabolic diseases.
8-10 weeks age mice were maintained as example 4, and fed with high-fat diet (Research Diets, D12492). Mice were i.p. injected with compounds once daily for 7, 10, 11 or 14 days as indicated in each table. After the last compounds injection, mice were fasted for 6 hours with free access to water, and then sacrificed. Part of each liver was fixed in 4% paraformaldehyde for H&E staining, and other liver tissues were stored in liquid nitrogen for enzyme activity measurement and gene expression analysis by RT-PCR. The serums were collected to measure metabolic parameters, including serum glucose, insulin, cholesterol, free fatty acid (FFA) and triglyceride levels. Serum glucose was analyzed using glucose oxidase method (Applygen, Beijing, China). The blood glucose in Table 11 was measured with Berenger blood glucose test strips (B/BRAUN, German) from blood by cutting mice tail after the 6th injection and following fast for 16 hours. Serum cholesterol and FFA were analyzed using Cholesterol Assay Kit and FFA Assay Kit (Bioassay Systems, USA; Nanjing Jiancheng Bioengineering Institute, China; FFA ELISA, R&D, USA), respectively. Serum triglyceride was analyzed using Triglyceride Assay Kit (Bioassay Systems, USA; WAKO Chemicals Inc., Japan; Applygen, Beijing, China). Liver triglyceride was analyzed using Tissue triglyceride assay kit (Applygen, Beijing, China). Serum insulin levels were measured by the Ultra Sensitive Mouse Insulin ELISA Kit (Crystal Chem. Inc., USA). RNA was isolated using Tissue RNA kit (Omega Bio-Tek, GA). The first strand cDNA were obtained by TAKARA reverse transcription kit. Real-time quantitative PCR were performed on a CFX96™ Real-Time PCR Detection System (Bio-Rad) using SYBR Premix Ex Taq™ (TAKARA). Relative mRNA expression levels were normalized to actin levels. […]

A further test deals with KK-Ay mice. As to the kind of experiment: Serum metabolic parameters in high-fat diet fed diabetic KK-Ay mice. It counts as in vivo, mouse. The note with it: 10 mg/kg for 14 days, vehicle 253 ± 11.
Source text: as §1
8-10 weeks age mice were maintained as example 4, and fed with high-fat diet (Research Diets, D12492). Mice were i.p. injected with compounds once daily for 7, 10, 11 or 14 days as indicated in each table. After the last compounds injection, mice were fasted for 6 hours with free access to water, and then sacrificed. Part of each liver was fixed in 4% paraformaldehyde for H&E staining, and other liver tissues were stored in liquid nitrogen for enzyme activity measurement and gene expression analysis by RT-PCR. The serums were collected to measure metabolic parameters, including serum glucose, insulin, cholesterol, free fatty acid (FFA) and triglyceride levels. Serum glucose was analyzed using glucose oxidase method (Applygen, Beijing, China). The blood glucose in Table 11 was measured with Berenger blood glucose test strips (B/BRAUN, German) from blood by cutting mice tail after the 6th injection and following fast for 16 hours. Serum cholesterol and FFA were analyzed using Cholesterol Assay Kit and FFA Assay Kit (Bioassay Systems, USA; Nanjing Jiancheng Bioengineering Institute, China; FFA ELISA, R&D, USA), respectively. Serum triglyceride was analyzed using Triglyceride Assay Kit (Bioassay Systems, USA; WAKO Chemicals Inc., Japan; Applygen, Beijing, China). Liver triglyceride was analyzed using Tissue triglyceride assay kit (Applygen, Beijing, China). Serum insulin levels were measured by the Ultra Sensitive Mouse Insulin ELISA Kit (Crystal Chem. Inc., USA). RNA was isolated using Tissue RNA kit (Omega Bio-Tek, GA). The first strand cDNA were obtained by TAKARA reverse transcription kit. Real-time quantitative PCR were performed on a CFX96™ Real-Time PCR Detection System (Bio-Rad) using SYBR Premix Ex Taq™ (TAKARA). Relative mRNA expression levels were normalized to actin levels.

Test [1] can be described thus: Clearance of superoxide anion radical in vitro. Conditions: method of CN 102813683 B, p<0.01.
Test [2] deals with mice with APAP-induced liver injury. As to the kind of experiment: Acetaminophen (APAP)-induced liver injury in mouse. The class given is in vivo. The source says: Methods: Acetaminophen (APAP)-induced liver injury in mouse is a commonly used model to study drugs protecting liver. Overdose of APAP causes liver injury by inducing the production of reactive oxygen species and reactive nitrogen species, and excessive consumption of reductive substances such as antioxidant glutathione (GSH), leading to the reduction of GSH in vivo, and the following upregulation of the activities of the aspartate aminotransferase (AST), the alanine aminotransferase (ALT) and the lactate dehydrogenase (LDH), which will result in liver inflammation and necrosis. In this example, the APAP-induced liver injury was used to detect the protection and repair functions of our compounds in liver injury.
One-year or 8-week age mice were maintained under environmentally controlled conditions with free access to standard chow diet and water. Animal experiments were conducted in the barrier facility of the Laboratory Animal Center, Xiamen University, approved by the Institutional Animal Use and Care Committee of Xiamen University, China.
Compounds were solved with DMSO and then prepared to work concentration with 40% HBC (2-hydroxypropyl-β-cyclodextrin) in which the final work concentrations of compounds are 5 mg/kg body weight, 10 mg/kg or 20 mg/kg in 100 μl injection volume and the concentration of DMSO is 10%. Compounds were intraperitoneal (i.p.) injected once daily for five days. For Feroline and Tschimganine, one-year age mice were used in the experiment. For other compounds, 8-week age mice were used. […] For Tschimganine, 20 mg/kg dose of compound was administered to mice. For other compounds, 5 mg/kg dose of compounds were administered to mice. Six hours after the fifth injection, 500 mg/kg body weight of APAP solved in PBS was i.p. injected to the mice. 24 hours later, mice were sacrificed. Part of each liver was fixed in 4% paraformaldehyde, and the liver histology characterization was analyzed by haematoxylin and eosin (H&E) staining with paraffin-embedded sections by standard procedures. Other liver tissues were collected for detecting the GSH levels, and the mRNA expression of genes involved in liver repairing, such as GPX1 and UGT1a1, by RT-PCR. The serums were collected to measure enzymes activities including AST, ALT and LDH. For the synthetic derivatives, ALT and GSH were selected as indicating markers for the function of these compounds.

The test system of test [3] is mouse embryonic fibroblasts (MEFs). As to the kind of experiment: GSH levels in mouse embryonic fibroblasts (MEFs). The class given is cell-based. The note with it: 20 μM, 24 hours, vehicle 31 ± 6. The source says: The reduced glutathione (GSH) is a natural antioxidant in cells and plays important function responding the oxidative stress. The GSH levels will decrease with age, infection, poisoning, exogenous toxins and oxidative stress. The Sestrin2 (Sesn2) gene encodes a conserved antioxidant protein that is induced on oxidative stress and protects cells against reactive oxygen species. SOD2 is an antioxidant enzyme. The antioxidants are defense system for organ to prevent damage by free radical. In this example, the mouse embryonic fibroblasts (MEFs) were treated with compounds for 24 hours, and the GSH levels were analyzed using GSH kit (Nanjing Jiancheng Engineering Institute, China). […] Correspondingly, the expression levels of the antioxidant genes such as SOD2 and SESN2 increased in compounds treated MEFs (Table 26 and Table 28).

For the substance Hedragonic acid, in the test on db/db mice (vehicle 12 ± 3), the “Serum Insulin (ng/ml)” value is 4.65 ± 0.2^b ng/ml. Also, the “Serum Glucose (mg/dl)” value in the test with db/db mice (vehicle 521 ± 54) was 334 ± 50^a mg/dl; in the test with KK-Ay mice, 161 ± 21^b mg/dl. Further, in test [1], the “clearance rate to superoxide anion radical” value is on record as 58%±6.4%. Further, the “Liver morphology by H&E staining (FIG. 1)” value in test [2] (10 mg/kg (Tschimganine 20 mg/kg) i.p. five days, then APAP, compared to severe liver injury in control group) is recorded as “almost normal liver morphology”. The “expression levels of GPX1 and UGT1α1 in liver” value in test [2] (mRNA by RT-PCR, vs vehicle control group, Table 5 (not given)) is “significantly upregulated”. The “activities of serum AST, ALT and LDH” value in test [2] (vs vehicle control group, Table 5 (not given)) was “dramatically lower”. For the same substance, the “GSH (μM)” value in test [3] was 72 ± 9^a μM.
